Assays:
[1] = biological target: T1, Nav1.7 (Homo sapiens, UniProt Q15858); test: VIPR (voltage/ion probe reader) membrane potential assay, Nav1.7; type: cell-based; conditions: for inhibition at 10 µM: HEK293, HEK cells expressing hNav1.7, veratridine; for selective inhibitory activity against Nav1.7: Nav1.7 versus Nav1.8, 10uM, from Table 2
T1 construct: host or cells: HEK cells

[2] = biological target: T2, Nav1.8 (Homo sapiens, UniProt Q9Y5Y9); test: VIPR (voltage/ion probe reader) membrane potential assay, Nav1.8; type: cell-based; conditions: HEK293, HEK cells expressing hNav1.8, veratridine
T2 construct: host or cells: HEK cells
T2 sequence (Q9Y5Y9 whole entry): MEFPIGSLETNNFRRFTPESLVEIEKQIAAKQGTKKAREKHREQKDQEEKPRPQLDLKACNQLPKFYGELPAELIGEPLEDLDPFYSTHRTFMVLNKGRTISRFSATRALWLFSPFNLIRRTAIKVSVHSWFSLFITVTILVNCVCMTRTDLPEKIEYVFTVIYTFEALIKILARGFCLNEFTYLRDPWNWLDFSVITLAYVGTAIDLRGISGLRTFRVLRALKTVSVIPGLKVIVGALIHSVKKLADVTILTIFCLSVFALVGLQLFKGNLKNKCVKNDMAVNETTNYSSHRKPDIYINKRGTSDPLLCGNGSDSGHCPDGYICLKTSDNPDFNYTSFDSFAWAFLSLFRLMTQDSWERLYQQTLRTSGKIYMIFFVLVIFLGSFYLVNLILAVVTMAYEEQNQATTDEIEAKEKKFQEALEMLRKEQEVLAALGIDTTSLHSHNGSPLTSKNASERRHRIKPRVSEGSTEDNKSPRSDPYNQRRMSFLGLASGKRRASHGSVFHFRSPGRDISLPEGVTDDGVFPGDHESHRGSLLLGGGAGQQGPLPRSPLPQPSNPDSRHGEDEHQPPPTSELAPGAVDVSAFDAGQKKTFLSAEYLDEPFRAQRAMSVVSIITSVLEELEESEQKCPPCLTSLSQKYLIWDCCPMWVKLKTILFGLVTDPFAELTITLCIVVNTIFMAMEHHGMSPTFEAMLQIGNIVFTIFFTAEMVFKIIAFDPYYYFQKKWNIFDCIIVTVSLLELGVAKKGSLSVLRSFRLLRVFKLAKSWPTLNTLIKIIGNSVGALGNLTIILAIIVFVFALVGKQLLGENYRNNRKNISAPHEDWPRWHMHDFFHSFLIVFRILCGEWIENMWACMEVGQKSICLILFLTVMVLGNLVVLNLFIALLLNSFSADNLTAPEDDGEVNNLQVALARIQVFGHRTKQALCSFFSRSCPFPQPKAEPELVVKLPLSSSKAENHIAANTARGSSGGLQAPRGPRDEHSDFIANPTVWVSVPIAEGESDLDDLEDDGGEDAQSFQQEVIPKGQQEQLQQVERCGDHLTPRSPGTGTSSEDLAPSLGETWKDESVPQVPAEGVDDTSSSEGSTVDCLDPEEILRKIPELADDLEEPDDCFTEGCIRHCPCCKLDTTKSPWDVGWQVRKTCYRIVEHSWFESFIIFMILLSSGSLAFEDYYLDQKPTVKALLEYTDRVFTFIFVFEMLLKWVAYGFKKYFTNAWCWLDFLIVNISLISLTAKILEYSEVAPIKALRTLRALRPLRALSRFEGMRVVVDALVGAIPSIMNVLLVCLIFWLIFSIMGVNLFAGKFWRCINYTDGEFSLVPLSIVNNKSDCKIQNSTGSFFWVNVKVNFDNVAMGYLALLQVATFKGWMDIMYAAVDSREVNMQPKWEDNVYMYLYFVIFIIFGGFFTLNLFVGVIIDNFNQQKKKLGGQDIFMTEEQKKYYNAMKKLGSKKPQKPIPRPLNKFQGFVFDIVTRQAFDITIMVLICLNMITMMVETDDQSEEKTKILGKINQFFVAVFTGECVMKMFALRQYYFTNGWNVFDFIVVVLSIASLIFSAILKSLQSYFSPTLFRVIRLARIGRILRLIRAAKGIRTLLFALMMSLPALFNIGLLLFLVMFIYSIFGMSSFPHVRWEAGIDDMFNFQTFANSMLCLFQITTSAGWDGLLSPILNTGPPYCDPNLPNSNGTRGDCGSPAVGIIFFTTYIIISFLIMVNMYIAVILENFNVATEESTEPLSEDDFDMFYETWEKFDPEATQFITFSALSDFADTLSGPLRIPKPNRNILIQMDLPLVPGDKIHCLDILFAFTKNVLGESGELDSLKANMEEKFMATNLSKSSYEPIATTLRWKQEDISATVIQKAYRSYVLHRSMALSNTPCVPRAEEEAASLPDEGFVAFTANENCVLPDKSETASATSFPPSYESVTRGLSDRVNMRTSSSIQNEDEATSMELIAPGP

T1 sequence (Q15858 whole entry): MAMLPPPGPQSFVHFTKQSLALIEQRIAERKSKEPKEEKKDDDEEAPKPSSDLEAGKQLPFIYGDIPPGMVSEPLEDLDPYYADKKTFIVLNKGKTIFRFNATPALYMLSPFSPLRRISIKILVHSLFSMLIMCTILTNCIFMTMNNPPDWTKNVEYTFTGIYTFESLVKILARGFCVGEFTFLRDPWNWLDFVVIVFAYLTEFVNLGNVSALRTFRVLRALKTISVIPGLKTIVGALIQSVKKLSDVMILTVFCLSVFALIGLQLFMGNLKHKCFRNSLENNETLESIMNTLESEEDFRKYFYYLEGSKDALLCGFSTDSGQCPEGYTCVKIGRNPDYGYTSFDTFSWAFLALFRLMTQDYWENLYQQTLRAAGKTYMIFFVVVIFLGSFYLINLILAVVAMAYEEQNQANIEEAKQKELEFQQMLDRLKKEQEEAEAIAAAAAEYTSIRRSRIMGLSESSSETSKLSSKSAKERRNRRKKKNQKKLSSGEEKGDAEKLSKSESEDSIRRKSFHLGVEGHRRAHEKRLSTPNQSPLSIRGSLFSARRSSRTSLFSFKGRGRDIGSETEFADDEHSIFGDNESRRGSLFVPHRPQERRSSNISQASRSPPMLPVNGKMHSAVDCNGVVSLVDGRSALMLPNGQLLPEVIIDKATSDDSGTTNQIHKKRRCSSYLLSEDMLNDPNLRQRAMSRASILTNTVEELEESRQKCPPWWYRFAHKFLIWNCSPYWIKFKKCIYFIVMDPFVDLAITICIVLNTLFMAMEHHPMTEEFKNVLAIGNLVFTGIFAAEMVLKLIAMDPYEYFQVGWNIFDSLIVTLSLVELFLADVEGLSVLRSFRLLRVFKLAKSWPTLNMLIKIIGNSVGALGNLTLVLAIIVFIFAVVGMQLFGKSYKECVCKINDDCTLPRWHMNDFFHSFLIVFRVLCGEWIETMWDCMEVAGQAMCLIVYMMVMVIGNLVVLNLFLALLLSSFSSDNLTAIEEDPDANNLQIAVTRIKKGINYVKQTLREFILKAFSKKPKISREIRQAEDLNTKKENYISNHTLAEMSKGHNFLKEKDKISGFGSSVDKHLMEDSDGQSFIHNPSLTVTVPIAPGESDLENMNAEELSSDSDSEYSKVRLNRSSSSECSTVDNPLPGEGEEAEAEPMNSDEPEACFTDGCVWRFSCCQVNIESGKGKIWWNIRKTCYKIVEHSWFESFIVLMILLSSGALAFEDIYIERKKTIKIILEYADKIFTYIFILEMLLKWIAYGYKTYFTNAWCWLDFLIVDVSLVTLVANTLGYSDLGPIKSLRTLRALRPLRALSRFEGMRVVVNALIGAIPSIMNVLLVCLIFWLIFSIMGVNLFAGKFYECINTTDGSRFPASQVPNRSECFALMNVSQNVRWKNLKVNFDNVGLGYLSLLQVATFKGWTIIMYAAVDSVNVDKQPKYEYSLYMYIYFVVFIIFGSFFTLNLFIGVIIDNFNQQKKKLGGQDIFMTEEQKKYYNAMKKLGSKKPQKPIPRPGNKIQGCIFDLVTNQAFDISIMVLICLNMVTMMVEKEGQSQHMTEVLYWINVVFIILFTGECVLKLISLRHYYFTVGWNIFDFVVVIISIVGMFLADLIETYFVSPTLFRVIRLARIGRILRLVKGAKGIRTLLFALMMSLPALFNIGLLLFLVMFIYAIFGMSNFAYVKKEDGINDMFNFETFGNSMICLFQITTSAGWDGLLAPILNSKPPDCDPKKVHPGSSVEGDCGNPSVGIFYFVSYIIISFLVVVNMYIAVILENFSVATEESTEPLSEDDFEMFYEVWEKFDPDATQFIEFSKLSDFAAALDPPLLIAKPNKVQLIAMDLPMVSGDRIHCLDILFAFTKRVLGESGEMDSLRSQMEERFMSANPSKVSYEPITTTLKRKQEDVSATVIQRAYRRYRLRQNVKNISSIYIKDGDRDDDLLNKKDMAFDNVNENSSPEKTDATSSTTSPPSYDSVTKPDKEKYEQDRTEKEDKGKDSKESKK

SMILES	inhibition at 10 µM [1] [%]	inhibition at 10 µM [2] [%]	selective inhibitory activity against Nav1.7 [1]
COc1ccc2[nH]cc(CNCc3cc(OC)c(OC)c(OC)c3)c2c1 [실시예 36, 1-(5-메톡시-1H-인돌-3-일)-N-(3,4,5-트리메톡시벤질)메탄아민]	23.7	–	–
C[C@H](NCc1c[nH]c2ccc(Cl)cc12)C(N)=O [실시예 3, (S)-2-((5-클로로-1H-인돌-3-일)메틸아미노)프로판아미드]	2.46	20.7	–
CC(CCc1ccccc1)NCc1ccc(N2CCN(C)CC2)cc1 (stereo not shown) [실시예 13, N-(4-(4-메틸피페라진-1-일)벤질)-4-페닐부탄-2-아민]	66.4	4.97	선택적인 저해 활성
COc1cc(CNCc2ccc(Oc3ccc(F)cc3)cc2)cc(OC)c1OC [실시예 31, N-(4-(4-플루오로페녹시)벤질)-1-(3,4,5-트리메톡시페닐)메탄아민]	16.6	–	–
COc1ccc2[nH]cc(CN[C@@H](C)C(N)=O)c2c1 [실시예 5, (S)-2-((5-메톡시-1H-인돌-3-일)메틸아미노)프로판아미드]	4.3	18.3	–
CC(CCc1ccccc1)NC(=O)c1ccc(-c2ccccc2)cc1 (stereo not shown) [실시예 25, N-(4-페닐부탄-2-일)-[1,1'-바이페닐]-4-카복스아미드]	84	31.2	선택적인 저해 활성
NC(=O)[C@@H](NCc1ccc(Oc2ccc(F)cc2)cc1)c1ccccc1 [실시예 10, (S)-2-(4-(4-플루오로페녹시)벤질아미노)-2-페닐아세트아미드]	31.3	11.3	–
Cc1onc(-c2ccc(Cl)cc2)c1C(=O)NC(C)CCc1ccccc1 (stereo not shown) [실시예 28, 3-(4-클로로페닐)-5-메틸-N-(4-페닐부탄-2-일)이속사졸-4-카복스아미드]	24.4	–	–
CC(CCc1ccccc1)NCc1ccc(-c2cncnc2)cc1 (stereo not shown) [실시예 19, 4-페닐-N-(4-(피리미딘-5-일)벤질)부탄-2-아민]	29.8	–	–
CC(CCc1ccccc1)NCc1c[nH]c2ccc(Cl)cc12 (stereo not shown) [실시예 21, N-((5-클로로-1H-인돌-3-일)메틸)-4-페닐부탄-2-아민]	38.5	–	–
CC(CCc1ccccc1)NCc1ccc(N2CCOCC2)cc1 (stereo not shown) [실시예 14, N-(4-모폴리노벤질)-4-페닐부탄-2-아민]	87.1	10.2	선택적인 저해 활성
COc1cc(CNC(=O)c2ccc(-c3ccccc3)cc2)cc(OC)c1OC [실시예 38, N-(3,4,5-트리메톡시벤질)-[1,1'-바이페닐]-4-카복스아미드]	6.9	18.3	–
COc1cc(CNCc2c[nH]c3ccc(OCc4ccccc4)cc23)cc(OC)c1OC [실시예 33, 1-(5-(벤질옥시)-1H-인돌-3-일)-N-(3,4,5-트리메톡시벤질)메탄아민]	34.9	5.87	–
COc1cc(CNCc2c[nH]c3cc(F)ccc23)cc(OC)c1OC [실시예 35, 1-(6-플루오로-1H-인돌-3-일)-N-(3,4,5-트리메톡시벤질)메탄아민]	38.2	–	–
COc1cc(CNCc2c[nH]c3ccccc23)cc(OC)c1OC [실시예 29, N-((1H-인돌-3-일)메틸)-1-(3,4,5-트리메톡시페닐)메탄아민]	16.4	–	–
COc1cc(CNC(=O)c2ccc3ccccc3n2)cc(OC)c1OC [실시예 41, N-(3,4,5-트리메톡시벤질)퀴놀린-2-카복스아미드]	71.7	19.3	선택적인 저해 활성
COc1cc(CNCc2c[nH]c3c([N+](=O)[O-])cccc23)cc(OC)c1OC [실시예 37, 1-(7-니트로-1H-인돌-3-일)-N-(3,4,5-트리메톡시벤질)메탄아민]	4.08	8.81	–

SMILES	inhibition at 10 µM [1] [%]	inhibition at 10 µM [2] [%]	selective inhibitory activity against Nav1.7 [1]
CC(CCc1ccccc1)NCc1c[nH]c2ccccc12 (stereo not shown) [실시예 22, N-((1H-인돌-3-일)메틸)-4-페닐부탄-2-아민]	14.2	–	–
CC(CCc1ccccc1)NCc1ccc(-c2ccc(Cl)cc2)o1 (stereo not shown) [실시예 15, N-((5-(4-클로로페닐)퓨란-2-일)메틸)-4-페닐부탄-2-아민]	34.6	42.2	–
COc1cc(CNCc2c[nH]c3ccc(Br)cc23)cc(OC)c1OC [실시예 34, 1-(5-브로모-1H-인돌-3-일)-N-(3,4,5-트리메톡시벤질)메탄아민]	27	13.9	–
NC(=O)[C@@H](NCc1c[nH]c2ccc(Cl)cc12)c1ccccc1 [실시예 7, (S)-2-((5-클로로-1H-인돌-3-일)메틸아미노)-2-페닐아세트아미드]	–	3.45	–
CC(CCc1ccccc1)NCc1ccc(-c2cccc(C(F)(F)F)c2)o1 (stereo not shown) [실시예 12, 4-페닐-N-((5-(3-(트리플루오로메틸)페닐)퓨란-2-일)메틸)부탄-2-아민]	104	54.4	선택적인 저해 활성
COc1cc(CNCc2ccc(Oc3ccc(Cl)cc3)cc2)cc(OC)c1OC [실시예 32, N-(4-(4-클로로페녹시)벤질)-1-(3,4,5-트리메톡시페닐)메탄아민]	15.2	–	–
C[C@H](NCc1c[nH]c2ccc(OCc3ccccc3)cc12)C(N)=O [실시예 1, (S)-2-((5-(벤질옥시)-1H-인돌-3-일)메틸아미노)프로판아미드]	5.13	19.7	–
CC(CCc1ccccc1)NCc1ccc(Oc2ccc(F)cc2)cc1 (stereo not shown) [실시예 23, N-(4-(4-플루오로페녹시)벤질)-4-페닐부탄-2-아민]	33.9	–	–
NC(=O)[C@@H](NCc1cc(-c2ccc(Cl)cc2)on1)c1ccccc1 [실시예 9, (S)-2-((5-(4-클로로페닐)이속사졸-3-일)메틸아미노)-2-페닐아세트아미드]	–	1.77	–
CC(CCc1ccccc1)NCc1ccc(Oc2ccc(Cl)cc2)cc1 (stereo not shown) [실시예 24, N-(4-(4-클로로페녹시)벤질)-4-페닐부탄-2-아민]	10.2	–	–
COc1cc(CNCc2c(-c3ccccc3)[nH]c3ccccc23)cc(OC)c1OC [실시예 30, 1-(2-페닐-1H-인돌-3-일)-N-(3,4,5-트리메톡시페닐)메탄아민]	12.1	3.3	–
NC(=O)[C@@H](NCc1ccc(Oc2ccc(Cl)cc2)cc1)c1ccccc1 [실시예 11, (S)-2-(4-(4-클로로페녹시)벤질아미노)-2-페닐아세트아미드]	3.68	19.5	–
CC(CCc1ccccc1)NC(=O)c1cccc2ccccc12 (stereo not shown) [실시예 27, N-(4-페닐부탄-2-일)-1-나프타미드]	4.12	59.2	–
COc1ccc(-c2ccc(CNC(C)CCc3ccccc3)o2)cc1Cl (stereo not shown) [실시예 18, N-((5-(3-클로로-4-메톡시페닐)퓨란-2-일)메틸)-4-페닐부탄-2-아민]	65.9	6.75	선택적인 저해 활성
CC(CCc1ccccc1)NCc1ccc(Oc2ccc(C#N)cc2)cc1 (stereo not shown) [실시예 20, 4-(4-((4-페닐부탄-2-일)아미노메틸)페녹시)벤조나이트릴]	106	42.2	선택적인 저해 활성
C[C@H](NCc1c[nH]c2ccc(Br)cc12)C(N)=O [실시예 2, (S)-2-((5-브로모-1H-인돌-3-일)메틸아미노)프로판아미드]	59.9	27.4	선택적인 저해 활성

Reference: KR20190126525A, “신규 소듐채널 저해 화합물, 이의 제조방법, 및 이를 포함하는 소듐채널 관련 질환의 예방 또는 치료용 약학적 조성물” (이화여자대학교 산학협력단, priority 2018, dated 2019)
